Source: patent US7632819B1, “Methods and compositions for inhibiting PKC delta cleavage for treatment and prevention of neurodegeneration and apoptosis” (Iowa State University Research Foundation, Inc., priority 2004, dated 2009)
Where a SMILES comes first, the peptide text is derived from it. The star is where a group is joined. Cbz = O=C(OCc1ccccc1)*; CH2F = FC*

Experiments:
[1] = tested on: PKCδ; experiment: Immunoprecipitation kinase assay (histone H1 phosphorylation) in N27 cells; assay type: cell-based, rat; settings: inhibitor 50 μM
Description: (§1) Chemicals. Protease cocktail, ATP, protein-A-sepharose, protein-G-sepharose and anti-â-actin antibody were obtained from Sigma-Aldrich (St. Louis, Mo.); mouse tyrosine hydroxylase antibody was purchased from Chemicon (Temecula, Calif.); the rabbit polyclonal antibody for tyrosine hydroxylase was obtained from Calbiochem Bioscience, Inc. (King of Prussia, Pa.); rabbit PKCδ antibody was purchased from Santa Cruz Biotechnology, Inc. (Santa Cruz, Calif.); anti-rabbit and anti-mouse secondary antibodies and the ECL chemiluminescence kit were purchased from Amersham Pharmacia Biotech. (Piscataway, N.J.). Alexa 488 conjugated antirabbit/mouse, Cy3 conjugated anti-rabbit/mouse antibody and Hoechst 33342 were purchased from Molecular Probes, Inc. (Eugene, Oreg.). [ã-32P]ATP was purchased from Perkin Elmer Life Science Products (Boston, Mass.). The Bradford protein assay kit was purchased from Bio-Rad Laboratories (Hercules, Calif.). RPMI, fetal bovine serum, -glutamine, penicillin, and streptomycin were purchased from Invitrogen (Gaithersburg, Md.). Quantity One 4.2.0 software was purchased from Bio-Rad. Design and synthesis of z-DIPD-fmk (SEQ ID NO:5). To develop a cell permeable peptide inhibitor to specifically block PKCδ cleavage, we designed the tetrapeptide Asp-Ile-Pro-Asp (DIPD) (SEQ ID NO:5) corresponding to position 324-327 in rat PKCδ cDNA representing the caspase-3 cleavage site. Since this peptide is directed against the caspase-3 cleavage site of PKCδ, it should prevent the proteolytic cleavage and activation of PKCδ mediated by caspase-3. The custom synthesis of the tetrapeptide Z-Asp(OMe)-Ile-Pro-Asp(OMe)-FMK (SEQ ID NO:5) was performed at MP Biomedicals (Irvine, Calif.), a quality company that specializes in developing cell permeable peptide inhibitors directed against apoptosis cell signaling molecules. Briefly, the synthesis was performed with the reaction of Boc-D(OMe)-OH with MBFM (Magnesium benzyl fluoromalonate) to produce Beta-Keto fluoroester, followed by hydrogenation with Pd/c to produce Boc-D(OMe)FK, which was converted into Tfa salt using trifluoroacetic acid. Coupling of Tfa salt with Z-D(OMe)—I—P—OH in DMF with HOBT, HBTU DIEA and workup produced a crude product which was purified by column chromatography over silica gel. Elution with EtOAC:MeOH 95:5 gave pure fractions which were mixed and dried. Crystallization with EtOAC/Hexane, filtration and drying produced the pure product. Animals. Time-pregnant C57/bL mice were housed under standard conditions: constant temperature (22±1° C.), humidity (relative, 30%) and a 12-h light/dark cycle with free access to food and water. The animals and protocol procedures were approved and supervised by the Committee on Animal Care (COAC) at Iowa State University. Cell culture. […]

[2] = tested on: PKCδ; experiment: Western blot of PKCδ proteolytic cleavage in N27 cells; assay type: cell-based, rat
Description: as §1, with “molecules.” for “molecules. Briefly, the synthesis was performed with the reaction of Boc-D(OMe)-OH with MBFM (Magnesium benzyl fluoromalonate) to produce Beta-Keto fluoroester, followed by hydrogenation with Pd/c to produce Boc-D(OMe)FK, which was converted into Tfa salt using trifluoroacetic acid. Coupling of Tfa salt with Z-D(OMe)—I—P—OH in DMF with HOBT, HBTU DIEA and workup produced a crude product which was purified by column chromatography over silica gel. Elution with EtOAC:MeOH 95:5 gave pure fractions which were mixed and dried. Crystallization with EtOAC/Hexane, filtration and drying produced the pure product. Animals. Time-pregnant C57/bL mice were housed under standard conditions: constant temperature (22±1° C.), humidity (relative, 30%) and a 12-h light/dark cycle with free access to food and water. The animals and protocol procedures were approved and supervised by the Committee on Animal Care (COAC) at Iowa State University. Cell culture.”

## CC[C@H](C)[C@H](NC(=O)[C@H](CC(=O)OC)NC(=O)OCc1ccccc1)C(=O)N1CCC[C@H]1C(=O)N[C@@H](CC(=O)OC)C(=O)CF [z-DIPD-fmk, Z-Asp(OMe)-Ile-Pro-Asp(OMe)-FMK] (Cbz-D(OMe)IPD(OMe)-CH2F)
[1]; 100 μM 6-OHDA 24 hr
  effect on 6-OHDA-induced PKCδ kinase activity: almost completely suppressed
[1]; 300 μM MPP+ 36 hr
  effect on MPP+-induced PKCδ kinase activity: almost completely suppressed
[2]; N27 cells, 100 μM 6-OHDA 24 hr, inhibitor 50 μM
  effect on 6-OHDA-induced proteolytic cleavage of PKCδ: significantly attenuated
[2]; N27 cells, 300 μM MPP+ 36 hr, inhibitor 50 μM
  effect on MPP+-induced proteolytic cleavage of PKCδ: almost completely attenuated
[2]; concentration not given
  effect on PKCδ cleavage and proteolytic activation in PD models: effectively blocked
